The supplement of paper PMC8882468
± gives the standard deviation of the averaged measurements.

Columns and labels:
HCI-027 = organoid from a triple-negative breast cancer xenograft; test: CTG-3D luminescence at 96 h relative to day-0 seeding control (ratio to day 0); higher = more growth / less cytotoxicity; PDxO 3D drug screen, 96 h, CTG-3D normalised to day-0 seeding control.
HCI-003.E2 = organoid from an ER-positive breast cancer xenograft; test: as above
HCI-025 = organoid from a breast cancer xenograft; test: as above
HCI-016 = organoid from a triple-negative breast cancer xenograft; test: as above
HCI-024 = organoid from a breast cancer xenograft; test: as above
HCI-012 = organoid from a breast cancer xenograft; test: CTG-3D luminescence at 96 h relative to day-0 seeding control (ratio to day 0); higher = more growth / less cytotoxicity; PDxO 3D drug screen (set 2), 96 h, CTG-3D normalised to day-0 seeding control.

NC1(C(=O)N[C@@H](CCO)c2ccc(Cl)cc2)CCN(c2nc[nH]c3nccc2-3)CC1 [capivasertib]
CTG-3D luminescence at 96 h
Conditions	12.5 pM	0.00025 µM	0.005 µM	0.1 µM	1 µM	10 µM	100 µM	625 fM
HCI-016, days in culture: 153	3.06	1.93	2.64	2.32	2.43	1.43	0.426	2.85
HCI-016, days in culture: 172	2.38	1.35	1.88	1.56	1.72	1.44	0.453	1.75
HCI-016, days in culture: 190	1.81	1.24	1.5	0.925	1.13	1.1	0.565	1.47
HCI-016, days in culture: 199	1.58	1.48	1.5	1.6	1.44	0.914	0.407	1.79
HCI-024, days in culture: 105	1.73	1.84	1.39	1.47	0.926	0.839	0.401	2.06
HCI-024, days in culture: 122	2.22	2.39	1.78	1.68	1.09	1.35	0.518	2.23
HCI-024, days in culture: 163	2.16	1.74	1.93	2.41	1.56	1.32	0.629	2.73
HCI-025, days in culture: 172	2.76	1.4	3.17	1.35	1.43	0.474	0.354	2.57
HCI-025, days in culture: 209	1.74	1.99	1.44	0.818	0.472	0.37	0.266	1.74
HCI-025, days in culture: 218	1.88	2.08	1.82	1.2	0.565	0.592	0.288	1.69
HCI-027, days in culture: 176	2.31	1.3	2.32	1.05	1.12	0.758	0.0952	2.13
HCI-027, days in culture: 194	1.58	1.48	1.43	1.57	1.36	1.2	0.0815	1.55
HCI-027, days in culture: 201	1.67	1.8	1.88	2.17	1.71	0.976	0.0625	1.6

HCI-003.E2
Conditions	CTG-3D luminescence at 96 h
12.5 pM	2.4 ± 0.86
0.00025 µM	2.22 ± 0.62
0.005 µM	2.03 ± 0.41
0.1 µM	1.76 ± 0.28
1 µM	0.832 ± 0.14
10 µM	0.479 ± 0.06
100 µM	0.0376 ± 0.0065
625 fM	2.12 ± 0.16

Cc1nc(-c2cn3c(n2)-c2ccc(-c4cnn(C(C)(C)C(N)=O)c4)cc2OCC3)n(C(C)C)n1 [taselisib]
CTG-3D luminescence at 96 h
Conditions	12.5 pM	0.00025 µM	0.005 µM	0.1 µM	1 µM	10 µM	100 µM	625 fM
HCI-016, days in culture: 153	3	1.97	2.05	1.75	1.93	1.68	1.08	2.05
HCI-016, days in culture: 172	2.1	1.26	1.83	1.06	1.32	0.704	0.881	1.53
HCI-016, days in culture: 190	1.8	1.3	1.49	1.25	1.07	0.971	0.254	1.2
HCI-016, days in culture: 199	1.68	1.68	1.69	1.49	1.48	0.98	0.362	1.95
HCI-024, days in culture: 105	1.47	1.44	1.54	1.77	1.34	0.981	0.403	1.9
HCI-024, days in culture: 122	2.21	2.49	1.79	1.88	1.6	1.81	0.258	2.63
HCI-024, days in culture: 163	1.36	2.13	1.7	2.36	2.06	1.62	0.316	2
HCI-025, days in culture: 172	3.15	1.96	3.8	1.36	0.93	0.235	0.0865	1.92
HCI-025, days in culture: 209	1.6	2.39	1.79	1.16	0.455	0.267	0.0164	1.64
HCI-025, days in culture: 218	1.42	1.87	1.83	0.886	0.193	0.296	0.0322	1.54
HCI-027, days in culture: 176	1.91	1.52	2.2	1.11	1.31	0.095	0.0289	1.82
HCI-027, days in culture: 194	1.73	1.53	1.35	1.11	1.6	0.208	0.00956	1.77
HCI-027, days in culture: 201	2.55	2.73	2.59	1.88	1.72	0.173	0.031	2.81

HCI-003.E2
Conditions	CTG-3D luminescence at 96 h
12.5 pM	2.19 ± 0.79
0.00025 µM	2.28 ± 0.68
0.005 µM	1.77 ± 0.34
0.1 µM	0.633 ± 0.25
1 µM	0.183 ± 0.041
10 µM	0.0364 ± 0.013
100 µM	0.0189 ± 0.0028
625 fM	2.14 ± 0.43

O=C(c1cc(Cc2n[nH]c(=O)c3ccccc23)ccc1F)N1CCN(C(=O)C2CC2)CC1 [olaparib]
CTG-3D luminescence at 96 h, HCI-012
Conditions	12.5 pM	0.00025 µM	0.005 µM	0.1 µM	1 µM	10 µM	100 µM	625 fM
days in culture: 214	2.61	3.14	2.09	1.89	1.68	0.943	0.704	2.64
days in culture: 243	1.73	2.04	1.86	2.25	1.49	1.74	1.2	2.06
days in culture: 256	2.25	1.86	2.13	3.12	2.12	1.26	1.08	2.1
days in culture: 284	1.75	1.95	1.42	2.17	1.42	1.42	0.15	3

C[C@@H](Nc1cc(F)cc(F)c1)c1cc(C(=O)N(C)C)cc2c(=O)cc(N3CCOCC3)oc12 [AZD-8186]
CTG-3D luminescence at 96 h, HCI-012
Conditions	12.5 pM	0.00025 µM	0.005 µM	0.1 µM	1 µM	10 µM	100 µM	625 fM
days in culture: 214	3.16	3.58	2.36	2.15	1.61	1.53	0.299	3
days in culture: 243	1.81	2.44	1.8	2.35	1.56	1.4	0.468	2.52
days in culture: 256	2.2	2.24	2.12	3.26	1.35	0.936	0.409	2.45
days in culture: 284	1.94	2.57	2.11	2.5	1.45	2.64	0.535	2.65
